Assay results from ChEMBL document CHEMBL1201862, “PubChem BioAssay data set” (2004).
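Method: 48-hour compound exposure of cells in 96-well plates, five concentrations, linear interpolation of endpoints. GI50 is the concentration that inhibits growth by half.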 The source made the active and inactive calls. Cut-off read from the data, not from the text of the source: active = GI50 up to about 1.1 µM and inactive = higher.

Experiments:
Assay in all cases: NCI tumour cell line growth inhibition, 48 h
OVCAR-8 = system: OVCAR-8
DU-145 = system: DU-145
HOP-92 = system: HOP-92
MDA-N = system: MDA-N
MOLT-4 = system: MOLT-4
TK-10 = system: TK-10
A498 = system: A498
KM12 = system: KM12
UO-31 = system: UO-31
MDA-MB-231 = system: MDA-MB-231
NCI-H23 = system: NCI-H23
786-0 = system: 786-0
SNB-75 = system: SNB-75
NCI-H460 = system: NCI-H460
SNB-19 = system: SNB-19
SF-295 = system: SF-295
SW-620 = system: SW-620
CCRF-CEM = system: CCRF-CEM
LOX IMVI = system: LOX IMVI
OVCAR-5 = system: OVCAR-5
HCT-116 = system: HCT-116
UACC-62 = system: UACC-62
EKVX = system: EKVX
HOP-62 = system: HOP-62
MCF7 = system: MCF7
MDA-MB-435 = system: MDA-MB-435
UACC-257 = system: UACC-257
NCI/ADR-RES = system: NCI/ADR-RES
ACHN = system: ACHN
M14 = system: M14
NCI-H522 = system: NCI-H522
PC-3 = system: PC-3
HCT-15 = system: HCT-15
RPMI-8226 = system: RPMI-8226
COLO 205 = system: COLO 205
Malme-3M = system: Malme-3M
SR = system: SR
CAKI-1 = system: CAKI-1
K562 = system: K562
SK-OV-3 = system: SK-OV-3
U-251 = system: U-251
SK-MEL-28 = system: SK-MEL-28
OVCAR-3 = system: OVCAR-3
IGROV-1 = system: IGROV-1
SF-539 = system: SF-539
SF-268 = system: SF-268
HCC 2998 = system: HCC 2998
RXF 393 = system: RXF 393
BT-549 = system: BT-549
Hs-578T = system: Hs-578T
SK-MEL-5 = system: SK-MEL-5
NCI-H226 = system: NCI-H226
HT-29 = system: HT-29
A549 = system: A549
HL-60 = system: HL-60
SK-MEL-2 = system: SK-MEL-2
SN12C = system: SN12C

**Q.** What does the source list for `Cc1cs/c(=N\C(P(=O)(O)O)P(=O)(O)O)n1C`?
**A.** GI50 (OVCAR-8): > 100 µM (inactive); GI50 (DU-145): > 100 µM (inactive); GI50 (HOP-92): 42.9 µM (inactive); GI50 (MDA-N): > 100 µM (inactive); GI50 (MOLT-4): > 100 µM (inactive); GI50 (TK-10): > 100 µM (inactive); GI50 (A498): > 100 µM (inactive); GI50 (KM12): > 100 µM (inactive); GI50 (UO-31): > 100 µM (inactive); GI50 (MDA-MB-231): > 100 µM (inactive); GI50 (NCI-H23): > 100 µM (inactive); GI50 (786-0): 90.8 µM (inactive); GI50 (SNB-75): > 100 µM (inactive); GI50 (NCI-H460): > 100 µM (inactive); GI50 (SNB-19): > 100 µM (inactive); GI50 (SF-295): > 100 µM (inactive); GI50 (SW-620): > 100 µM (inactive); GI50 (CCRF-CEM): > 100 µM (inactive); GI50 (LOX IMVI): > 100 µM (inactive); GI50 (OVCAR-5): > 100 µM (inactive); GI50 (HCT-116): > 100 µM (inactive); GI50 (UACC-62): > 100 µM (inactive); GI50 (EKVX): > 100 µM (inactive); GI50 (HOP-62): > 100 µM (inactive); GI50 (MCF7): > 100 µM (inactive); GI50 (MDA-MB-435): > 100 µM (inactive); GI50 (UACC-257): > 100 µM (inactive); GI50 (NCI/ADR-RES): > 100 µM (inactive); GI50 (ACHN): > 100 µM (inactive); GI50 (M14): > 100 µM (inactive); GI50 (NCI-H522): > 100 µM (inactive); GI50 (PC-3): > 100 µM (inactive); GI50 (HCT-15): > 100 µM; GI50 (RPMI-8226): > 100 µM (inactive); GI50 (COLO 205): > 100 µM (inactive); GI50 (Malme-3M): > 100 µM (inactive); GI50 (SR): > 100 µM (inactive); GI50 (CAKI-1): > 100 µM (inactive); GI50 (K562): > 100 µM (inactive); GI50 (SK-OV-3): > 100 µM (inactive); GI50 (U-251): > 100 µM (inactive); GI50 (SK-MEL-28): > 100 µM (inactive); GI50 (OVCAR-3): > 100 µM (inactive); GI50 (IGROV-1): > 100 µM (inactive); GI50 (SF-539): > 100 µM (inactive); GI50 (SF-268): > 100 µM (inactive); GI50 (HCC 2998): > 100 µM (inactive); GI50 (RXF 393): > 100 µM (inactive); GI50 (BT-549): > 100 µM (inactive); GI50 (Hs-578T): 10.1 µM (inactive); GI50 (SK-MEL-5): 86.5 µM (inactive); GI50 (NCI-H226): > 100 µM (inactive); GI50 (HT-29): > 100 µM (inactive); GI50 (A549): > 100 µM (inactive); GI50 (HL-60): < 10 nM (active)

**Q.** Which GI50 (OVCAR-8) does the source give for `COC(=O)c1ccc(COC(=O)N2C=CCC2C(=O)O)cc1` (stereo unspecified) here?
**A.** > 100 µM (inactive)

**Q.** And the GI50 (DU-145)?
**A.** > 100 µM (inactive)

**Q.** And the GI50 (HOP-92)?
**A.** 63 µM (inactive)

**Q.** And the GI50 (MDA-N)?
**A.** > 100 µM (inactive)

**Q.** What about the GI50 (MOLT-4) of the same molecule?
**A.** > 100 µM (inactive)

**Q.** And the GI50 (SK-MEL-2)?
**A.** > 100 µM (inactive)

**Q.** And the GI50 (TK-10)?
**A.** > 100 µM (inactive)

**Q.** What about the GI50 (KM12) of the same molecule?
**A.** > 100 µM (inactive)

**Q.** And the GI50 (UO-31)?
**A.** > 100 µM (inactive)

**Q.** And the GI50 (MDA-MB-231)?
**A.** > 100 µM (inactive)

**Q.** What about the GI50 (NCI-H23) of the same molecule?
**A.** > 100 µM (inactive)

**Q.** And the GI50 (786-0)?
**A.** > 100 µM (inactive)

**Q.** What about the GI50 (SNB-75) of the same molecule?
**A.** > 100 µM (inactive)

**Q.** And the GI50 (NCI-H460)?
**A.** > 100 µM (inactive)

**Q.** What about the GI50 (SNB-19) of the same molecule?
**A.** > 100 µM (inactive)

**Q.** What about the GI50 (SF-295) of the same molecule?
**A.** > 100 µM (inactive)

**Q.** And the GI50 (SW-620)?
**A.** > 100 µM (inactive)

**Q.** What about the GI50 (OVCAR-5) of the same molecule?
**A.** > 100 µM (inactive)

**Q.** And the GI50 (UACC-62)?
**A.** > 100 µM (inactive)

**Q.** What about the GI50 (SN12C) of the same molecule?
**A.** > 100 µM (inactive)

**Q.** What about the GI50 (HOP-62) of the same molecule?
**A.** > 100 µM (inactive)

**Q.** What about the GI50 (MCF7) of the same molecule?
**A.** > 100 µM (inactive)

**Q.** And the GI50 (MDA-MB-435)?
**A.** > 100 µM (inactive)

**Q.** And the GI50 (UACC-257)?
**A.** > 100 µM (inactive)

**Q.** What about the GI50 (NCI/ADR-RES) of the same molecule?
**A.** > 100 µM (inactive)

**Q.** And the GI50 (ACHN)?
**A.** > 100 µM (inactive)

**Q.** And the GI50 (M14)?
**A.** > 100 µM (inactive)

**Q.** And the GI50 (NCI-H522)?
**A.** > 100 µM (inactive)

**Q.** And the GI50 (PC-3)?
**A.** > 100 µM (inactive)

**Q.** And the GI50 (HCT-15)?
**A.** > 100 µM

**Q.** What about the GI50 (RPMI-8226) of the same molecule?
**A.** > 100 µM (inactive)

**Q.** And the GI50 (COLO 205)?
**A.** > 100 µM (inactive)

**Q.** And the GI50 (Malme-3M)?
**A.** > 100 µM (inactive)

**Q.** What about the GI50 (SR) of the same molecule?
**A.** > 100 µM (inactive)

**Q.** What about the GI50 (CAKI-1) of the same molecule?
**A.** > 100 µM (inactive)

**Q.** What about the GI50 (K562) of the same molecule?
**A.** > 100 µM (inactive)

**Q.** What about the GI50 (SK-OV-3) of the same molecule?
**A.** > 100 µM (inactive)

**Q.** What about the GI50 (U-251) of the same molecule?
**A.** > 100 µM (inactive)

**Q.** What about the GI50 (SK-MEL-28) of the same molecule?
**A.** > 100 µM (inactive)

**Q.** What about the GI50 (OVCAR-3) of the same molecule?
**A.** > 100 µM (inactive)

**Q.** And the GI50 (IGROV-1)?
**A.** > 100 µM (inactive)

**Q.** What about the GI50 (SF-539) of the same molecule?
**A.** > 100 µM (inactive)

**Q.** And the GI50 (SF-268)?
**A.** > 100 µM (inactive)

**Q.** And the GI50 (HCC 2998)?
**A.** > 100 µM (inactive)

**Q.** And the GI50 (RXF 393)?
**A.** > 100 µM (inactive)

**Q.** What about the GI50 (BT-549) of the same molecule?
**A.** > 100 µM (inactive)

**Q.** And the GI50 (Hs-578T)?
**A.** > 100 µM (inactive)

**Q.** What about the GI50 (SK-MEL-5) of the same molecule?
**A.** > 100 µM (inactive)

**Q.** What about the GI50 (NCI-H226) of the same molecule?
**A.** > 100 µM (inactive)

**Q.** What about the GI50 (HT-29) of the same molecule?
**A.** > 100 µM (inactive)

**Q.** And the GI50 (A549)?
**A.** > 100 µM (inactive)
